Activity calls are given as the source filed them. The calls are words filed in the database; no cut-off is given here.

Experiment [1] relates to Phytophthora litchii. As to the kind of experiment: Antifungal activity against Peronophythora litchii at 1 mg/mL by disc diffusion method.
Experiment [2] is described as follows: Antifungal activity against […] musarum at 1 mg/mL by disc diffusion method. To be noted: Gloeosporium.
Experiment [3] relates to Glomerella cingulata. As to the kind of experiment: Antifungal activity against Glomerella cingulata at 1 mg/mL by disc diffusion method. On the technique in general: A growth-free zone around the sample is the usual read-out of agar diffusion tests.
The nature of experiment [4]: Antifungal activity against Glorosprium musarum at 1 ug/mL by disc diffusion method. The class given is functional. To be noted: Gloeosporium.

For `CC1(C)O[C@](C(=O)O)([C@H]2CC[C@]3(C)[C@@H]2CC[C@@H]2[C@@]4(C)CC[C@H](O[C@@H]5O[C@H](CO)[C@@H](O)[C@H](O)[C@H]5O)[C@](C)(CO)[C@@H]4CC[C@]23C)C[C@H](O)[C@@H]1O` [GENTIRIGEOSIDE A], the outcome in experiment [1] and in experiment [2] was inactive.
In the case of `C[C@]12CC[C@H](O[C@@H]3O[C@H](CO)[C@@H](O)[C@H](O)[C@H]3O)[C@](C)(CO)[C@@H]1CC[C@]1(C)[C@@H]2CC[C@@H]2[C@@H]([C@]3(C(=O)O)C[C@H](O)[C@H](O)[C@](C)(CO)O3)CC[C@]21C`, the result in experiment [1], in experiment [2] and in experiment [3] was inactive.
As to `CC1(C)O[C@](C(=O)O)([C@H]2CC[C@]3(C)[C@@H]2CC[C@@H]2[C@@]4(C)CC[C@H](O[C@@H]5O[C@H](CO)[C@@H](O)[C@H](O)[C@H]5O)[C@](C)(CO[C@@H]5O[C@H](CO)[C@@H](O)[C@H](O)[C@H]5O)[C@@H]4CC[C@]23C)C[C@H](O)[C@@H]1O` [GENTIRIGEOSIDE C], the outcome in experiment [1] and in experiment [2] was inactive.
As for `CC1(C)O[C@](C(=O)O)([C@H]2CC[C@]3(C)[C@@H]2CC[C@@H]2[C@@]4(C)CC[C@H](O[C@@H]5O[C@H](CO)[C@@H](O)[C@H](O)[C@H]5O[C@@H]5O[C@H](CO)[C@@H](O)[C@H](O)[C@H]5O)C(C)(C)[C@@H]4CC[C@]23C)C[C@H](O)[C@@H]1O` [GENTIRIGEOSIDE E], the result in experiment [1] and in experiment [2] was inactive.
For `CC1(C)O[C@](C(=O)O)([C@H]2CC[C@]3(C)[C@@H]2CC[C@@H]2[C@@]4(C)CC[C@H](O)[C@](C)(CO)[C@@H]4CC[C@]23C)C[C@H](O)[C@@H]1O`, the result in experiment [1], in experiment [2] and in experiment [3] was inactive.
On to `CC1(C)O[C@](C(=O)O)([C@H]2CC[C@]3(C)[C@@H]2CC[C@@H]2[C@@]4(C)CC[C@H](O[C@@H]5O[C@H](CO)[C@@H](O)[C@H](O)[C@H]5O[C@@H]5O[C@H](CO)[C@@H](O)[C@H](O)[C@H]5O)[C@](C)(CO)[C@@H]4CC[C@]23C)C[C@H](O)[C@@H]1O`, for which the outcome in experiment [1], in experiment [2] and in experiment [3] was inactive.
As to `COC(=O)Nc1nc2ccccc2[nH]1` [CARBENDAZIM], the inhibition zone (IZ) in experiment [4] came to 4 mm.

Values taken from ChEMBL document CHEMBL1147121, “Dammarane triterpenoids from the roots of Gentiana rigescens” (2007).
